Assay results as given in article PMC9917023, “Stabilization of Monomeric Tau Protein by All D-Enantiomeric Peptide Ligands as Therapeutic Strategy for Alzheimer’s Disease and Other Tauopathies” (International Journal of Molecular Sciences, 2023).
Non-standard residues stand in square brackets, D forms with d. Residues, ends and D or L forms follow the SMILES beside them.

Columns and labels:
PC12 cells = test: Cell-viability assay (MTT); format: cell-based, rat; conditions: 0.2, 1 and 5 µM, 24 h, 37 °C
Description: Human […] SH-SY5Y cells and rat pheochromocytoma PC12 cells were cultivated in RPMI medium with 10% fetal bovine serum and 5% horse serum. On a collagen-coated 96-well plate (Gibco, Life Technology, Carlsbad, CA, USA), 10.000 cells were seeded per well. The plate was incubated for 24 h at 37 °C and 5% CO2. TF2D-5 and TF2D-5a were added to the cells at concentrations of 0.2 µM, 1 µM, and 5 µM, respectively. As a positive control, 0.1% Trion X-100 was used. A medium was used as a negative control. The samples were incubated for a further 24 h at 37 °C and 5% CO2. Cell viability was determined by using the Cell Proliferation Kit 1 (MTT) (Roche, Basel, Switzerland) according to the instruction manual. The absorbance of generated formazan products was measured using a CLARIOstar plate reader (BMG, Offenburg, Germany). Absorption at 570 nm was measured and referenced against absorbance at 660 nm.
Figure S3. Peptide toxicity assay for different concentrations of TF2D -5 and TF2D-5a.
For this assay the compounds TF2D -5 and TF2D-5a were incubated on SHSY5Y and PC12 cells for 24 h at 37 °C and 5 % CO2. The “Cell Proliferation Kit 1” from Roche was used for the MTT assay. RPMI with 10 % HS and 5 % FBS was used as cell medium. As […] 0.1 % Triton X100 was used. For both assays no negative effect on the cell viability could be observed by addition of both compounds. […]

full-length tau 441 = biological target: T1, full-length tau 441 (Homo sapiens, UniProt P10636); test: Thioflavin-T assay of heparin-induced tau aggregation; format: biochemical
T1 construct: The gene for the human full-length tau was prepared on a plasmid called pET28a(+)-tau2N4R; made in house; host or cells: E. coli pRare
T1 sequence (P10636 1-441 isoform P10636-8): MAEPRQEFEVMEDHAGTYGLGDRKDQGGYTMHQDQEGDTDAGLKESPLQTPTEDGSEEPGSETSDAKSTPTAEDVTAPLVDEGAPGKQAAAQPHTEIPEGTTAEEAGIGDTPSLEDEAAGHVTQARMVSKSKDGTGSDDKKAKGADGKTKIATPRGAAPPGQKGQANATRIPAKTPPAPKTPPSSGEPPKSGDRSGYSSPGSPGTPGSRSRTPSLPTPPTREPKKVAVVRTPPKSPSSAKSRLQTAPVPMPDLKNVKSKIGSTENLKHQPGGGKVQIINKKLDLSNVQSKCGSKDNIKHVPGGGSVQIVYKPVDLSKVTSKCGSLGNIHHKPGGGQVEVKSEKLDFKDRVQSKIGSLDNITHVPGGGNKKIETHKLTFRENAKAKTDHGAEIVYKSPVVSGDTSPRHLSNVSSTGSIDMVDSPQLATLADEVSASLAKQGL
Description: Figure 5 Tau aggregation-influencing effect of TF2D-5 and TF2D-5a. The ThT assay was performed in a FLUOstar plate reader from BMG Labtech. Twenty-five micrometers recombinant full-length tau 441 was mixed with 12.5 µM heparin, 200 µM DTT, 0.05% NaN3, and […]. Compounds were added with a concentration of 25 µM. The total volume was adjusted to 100 µL with PBS pH 7.4, and the plate was measured with bottom optics. The experiment ran at 37 °C with measurement intervals of 20 min. Before each measurement, the plate was shaken for 15 s at 300 rpm. A 3 mm borosilicate bead was added to each well. (A) The effect of TF2D-5 when added at different time points during the ThT assay. When added at the start of the experiment no aggregation can be observed for the duration of the experiment (green). […] (B) The addition of TF2D-5a to the sample inhibits tau aggregation during the complete experiment which equals a lag time increase of at least 400% (blue). […] CP1 was obtained by randomizing the amino acid residue composition of TF2D-5.
To investigate whether TF2D-5 and TF2D-5a induce an extension of the lag time of tau aggregation, we performed a ThT experiment with sub-stoichiometric D-peptide concentrations. For this, we used tau that was produced according to the protocol in the Section 4. Twenty-five micrometers of full-length tau was incubated with 6.25 µM, 12.5 µM 25 µM, 50 µM, and 100 µM of D-peptides. As expected, we observed an increase in the lag time of the full-length tau aggregation with the increasing D-peptide concentrations. […] The addition of 6.25 µM of TF2D-5a shifted the lag time by about 60 h (a 200% increase).
ThT assays to characterize the aggregation inhibition properties of the selected compounds were conducted as follows. All measurements were performed in a FLUOstar plate reader (BMG, Offenburg, Germany). Recombinant full-length tau 441 (25 µM) was mixed with heparin (12.5 µM), DTT (200 µM), NaN3 (0.05%), and ThT (20 µM). […] The compounds were added with a maximum concentration of 25 µM. The total volume was adjusted to 100 µL with PBS pH 7.4, and the plate (Corning, New York, NY, USA) was measured with bottom optics. A 3 mm borosilicate bead (Hilgenberg GmbH, Malsfeld, Germany) was added to each well. The experiment ran at 37 °C, with measurement intervals of 20 min. Before each measurement, the plate was shaken for 15 s at 300 rpm.

[1] = Stability in simulated gastric fluid; format: in vitro ADME; conditions: SGF: 2 mg/mL NaCl, 3.2 mg/mL pepsin, 80 mM HCl, pH 1; 8 h
Description: (§1) Figure 12 Stability assay of TF2D-5 and TF2D-5a using different simulated human body fluids. (A) Stability of compounds in simulated gastric fluid (SGF). The simulated gastric fluid consisted of 2 mg/mL sodium chloride, 3.2 mg/mL pepsin, and 80 mM HCl; pH 1. (B) Stability of TF2D-5 and TF2D-5a in simulated intestinal fluid (SIF). Simulated intestinal fluid consisted of 6.8 mg/mL potassium dihydrogen phosphate, 10 mg/mL pancreas powder, and 15.4 mM NaOH; pH 6.8. (C) Stability of TF2D-5 and TF2D-5a in human blood plasma. K3EDTA human blood plasma was purchased from BioTrend. (D) Stability of TF2D-5 and TF2D-5a in human liver microsomes. Human liver microsomes consisted of 6 mg/mL protein (containing Cytochrome P450 (CYP) enzymes), 75 mM sucrose, 1.3 mM NADPH, 3.3 mM D-glucose-6-phosphat, 0.2 u/mL D-glucose-6-phosphat dehydrogenase, 3.3 mM magnesium chloride, and 100 mM potassium phosphate; pH 7.4.
(§2) The stability of the compounds was tested according to Elfgen et al. and Schemmert et al. Exceptions included the extraction of plasma, simulated gastric fluid (SGF), and simulated intestinal fluid (SIF) samples. These were obtained by the addition of 12.5 µL 0.35 M ZnSO4, followed by vortexing, the addition of 12.5 µL 0.5 M HCl, additional vortexing, and centrifugation at 14,000× g for 10 min at 4 °C.

[2] = Stability in simulated intestinal fluid; format: in vitro ADME
Description: as §1, §2

[3] = 6.25 µM D-peptide, 25 µM full-length tau

| Structure (SMILES) | toxicity (cell viability, MTT) (PC12 cells) | lag time increase (full-length tau 441; [3]) [%] | lag time increase (full-length tau 441; 12.5 µM D-peptide, 25 µM full-length tau) [%] | stability in simulated gastric fluid [1] | stability in simulated intestinal fluid ([2]; SIF: 6.8 mg/mL KH2PO4, 10 mg/mL pancreas powder, 15.4 mM NaOH, pH 6.8) | lag time increase (full-length tau 441; 25 µM compound, 25 µM tau 441, added at start) | metabolised at 8 h ([2]; simulated intestinal fluid with pancreas powder, SIF pH 6.8, 10 mg/mL pancreas powder, after about 8 h, read-out: decrease of level in simulated intestinal fluid) [%] |
| --- | --- | --- | --- | --- | --- | --- | --- |
| CC[C@@H](C)[C@@H](NC(=O)[C@@H](Cc1c[nH]cn1)NC(=O)CNC(=O)CNC(=O)[C@H]1CCCN1C(=O)[C@H](NC(=O)[C@@H](CCCCN)NC(=O)[C@@H](Cc1ccccc1)NC(=O)[C@@H](CC(C)C)NC(=O)[C@H](NC(=O)[C@@H](CCC(N)=O)NC(=O)[C@@H](Cc1ccc(O)cc1)NC(=O)CNC(=O)CNC(=O)[C@H](N)CC(=O)O)[C@H](C)CC)[C@H](C)CC)C(=O)N[C@H](Cc1c[nH]cn1)C(N)=O [TF2D-5] (H-[dD]GG[dY][dQ][dI][dL][dF][dK][dI][dP]GG[dH][dI][dH]-NH2) | not toxic | 100 | 200 | very stable in simulated gastric fluid | stable in simulated intestinal fluid |  |  |
| CC[C@@H](C)[C@@H](NC(=O)[C@@H](Cc1c[nH]cn1)NC(=O)CNC(=O)CNC(=O)[C@H]1CCCN1C(=O)[C@H](NC(=O)[C@@H](CCCCN)NC(=O)[C@@H](Cc1ccccc1)NC(=O)[C@@H](CC(C)C)NC(=O)[C@H](NC(=O)[C@@H](CCC(N)=O)NC(=O)[C@@H](Cc1ccc(O)cc1)NC(=O)CNC(=O)CNC(=O)[C@H](N)CC(=O)O)[C@H](C)CC)[C@H](C)CC)C(=O)N[C@H](Cc1c[nH]cn1)C(=O)N[C@H](CCCNC(=N)N)C(=O)N[C@H](CCCNC(=N)N)C(=O)N[C@H](CCCNC(=N)N)C(=O)N[C@H](CCCNC(=N)N)C(=O)N[C@H](CCCNC(=N)N)C(N)=O [TF2D-5a] (H-[dD]GG[dY][dQ][dI][dL][dF][dK][dI][dP]GG[dH][dI][dH][dR][dR][dR][dR][dR]-NH2) | not toxic | 200 |  | very stable in simulated gastric fluid |  | at least 400% | 27.8 |
